Values after ≈ are worked out from the molar mass of the structure shown.
Columns and labels:
[1] = tested on: wild-type M. tuberculosis; assay: microbe, parasite or virus in culture; type: cell-based; details: Mycobacterium tuberculosis
[2] = tested on: wild-type M. tuberculosis; set-up: species or system Balb/C mice; details: mouse, in vivo

Compound | MIC [1] [µg/mL] | bacterial burden (lung CFU) under treatment [2]
N[C@@H]1CON=C1O [D-cycloserine] | 5 (≈ 49 µM) | –
NNC(=O)c1ccncc1 [isoniazid] | 0.03 (≈ 0.219 µM) | similarly effective

From patent US9273341B2, “Methods for treatment of bacterial infections” (THE JOHNS HOPKINS UNVIERSITY, priority 2010, dated 2016)
